Data on ten molecules can be found in patent publication US11434222B2, “MAGL inhibitors” (H. LUNDBECK A/S, priority 2020, dated 2022).

In general, CLint scaled refers to the rate of metabolic loss divided by the concentration. Broadly, the kinetic solubility is solubility judged after dilution from a stock solution rather than from solid.

Data set [1] is described as follows: In vitro human hepatocyte stability. The class given is in vitro ADME. The note with it: cryopreserved human hepatocytes (pooled donor), human hepatocytes 0.5×10^6 cells/mL, read-out: Scaled-up unbound CLint. The protocol:
The metabolic stability of test articles (1 μM) in commercially sourced, pooled donor, cryopreserved human hepatocytes (0.5×10^6 cells/mL) was determined in duplicate. The CLint reactions (250 μL) were initiated by addition of test compound. Aliquots (25 μL) were taken at 0, 15, 30, 45, 60, 90, 120 and 240 minutes and then protein crashed with ice-cold acetonitrile containing internal standard then centrifuged (3220 g for 25 minutes). Supernatant was used for LC-MS/MS analysis. The in vitro half-life (in vitro t1/2) was determined from the slope value: in vitro t1/2=−0.693/k. Conversion of the in vitro t1/2 (in min) into the scale-up unbound intrinsic clearance (Scaled-up unbound CLint, in mL/min/kg) was done using the following equation (mean of duplicate determinations), with data shown in Table 5: Scaled-up unbound CLint=kV/N×scaling factor. V=incubation volume (0.25 mL); N=number of hepatocytes per well ([…]). Scaling factors for in vivo intrinsic clearance prediction are listed below: […]

Data set [2] is described as follows: Kinetic solubility in PBS. The following applies: aqueous buffer, kinetic from dmso stock. The class given is physicochemical. The protocol: The kinetic solubility of test articles was determined in PBS at pH 2.0 and pH 7.4 in duplicate. A stock solution of test compound in DMSO (10 mM) was incubated at RT for 2 hours with shaking at 1,100 RPM. The sample was then filtered using a vacuum manifold, diluted, and analyzed by LC-MS/MS. Chromatographic conditions: Phenomenex Synergi 4μ Hydro-PR 80A column (2.0×30 mm) coupled with pre-guard column; mobile phase=0.1% formic acid in acetonitrile and 0.1% formic acid in water; flowrate=0.65 mL/min; column temperature=40° C.; injection volume: 3 μL.
Mass conditions: Turbo spray ion source; ESI ionization model; MRM scan type; Collison gas=6 L/min; Curtain gas=30 L/min; Nebulize gas=50 L/min; Auxiliary gas=50 L/min; Temperature=500 degrees C.; Ion spray voltage=+5500 v (positive MRM).
The filtered solution was analyzed and quantified against a standard of known concentration in DMSO using UPLC coupled with mass spectral peak identification and quantitation. Solubility values of the test articles were calculated using Microsoft Excel as follows (DF is the dilution factor): […]

The target of data set [3] is T1, MAGL (Mus musculus, UniProt O35678).
T1 construct: brain proteomes were prepared and analyzed according to previously established methods; from tissue; host or cells: brain of wild-type C57Bl/6J mice
T1 sequence (O35678 1-303): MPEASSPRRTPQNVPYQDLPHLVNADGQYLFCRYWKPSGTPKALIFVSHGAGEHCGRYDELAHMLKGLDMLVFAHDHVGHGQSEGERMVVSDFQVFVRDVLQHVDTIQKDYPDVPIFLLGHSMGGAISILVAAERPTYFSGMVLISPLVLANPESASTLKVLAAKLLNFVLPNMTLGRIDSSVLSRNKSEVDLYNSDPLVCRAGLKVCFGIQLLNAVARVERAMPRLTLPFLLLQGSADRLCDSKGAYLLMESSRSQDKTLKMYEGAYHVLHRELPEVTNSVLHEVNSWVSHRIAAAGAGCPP
Put plainly: In vivo MAGL inhibition in mouse brain proteomes after oral gavage. The following applies: 5 mg/kg oral gavage, 4 h after administration, read-out: MAGL % inh. 5 mg/kg (mouse). The protocol:
Inhibitors were administered to wild-type C57B1/6J by oral gavage in a vehicle of polyethylene glycol. Each animal was sacrificed 4 h following administration and brain proteomes were prepared and analyzed according to previously established methods (See Niphakis, M. J., et al. (2011) ACS Chem. Neurosci. and Long, J. Z., et al. Nat. Chem. Biol. 5:37-44).

For data set [4], the target named is T2, MAGL (Homo sapiens, UniProt Q99685).
T2 construct: PC3 human cell membrane proteomes; endogenous in cells; host or cells: PC3 human cells (membrane proteome)
T2 sequence (Q99685 1-303): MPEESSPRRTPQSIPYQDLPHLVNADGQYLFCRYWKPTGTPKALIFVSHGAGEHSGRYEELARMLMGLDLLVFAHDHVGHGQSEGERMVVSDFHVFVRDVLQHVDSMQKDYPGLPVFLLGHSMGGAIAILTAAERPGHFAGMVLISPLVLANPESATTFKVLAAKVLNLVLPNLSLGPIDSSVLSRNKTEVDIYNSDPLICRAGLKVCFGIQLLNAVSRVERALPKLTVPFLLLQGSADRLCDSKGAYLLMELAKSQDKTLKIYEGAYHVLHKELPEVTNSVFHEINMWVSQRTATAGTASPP
Put plainly: In vitro competitive activity-based protein profiling (PC3 human cell membrane proteomes). It is filed as biochemical. How it is done: PC3 human cell membrane proteomes (50 µL, 2.0 mg/mL total protein concentration) were preincubated with varying concentrations of inhibitors at 37° C. After 30 min, the ABPP probe JW912-Bodipy (1.0 µL, 50 µM in DMSO) was added and the mixture was incubated for 30 min at room temperature. Reactions were quenched with SDS loading buffer (15 μL-4×) and run on SDS-PAGE. Following gel imaging, serine hydrolase activity was determined by measuring fluorescent intensity of gel bands corresponding to MAGL using ImageJ 1.43u software. Intensities were converted to percent enzyme activity by normalizing to DMSO controls. IC50 values were determined by fitting percent enzyme activities to a non-linear regression, 4-parameter, sigmoidal dose response function in Prism GraphPad.

The mark [5] stands for this setting: PBS pH 7.4, RT, read-out: pH 7.4 Solubility (kinetic).
Where [6] appears, read: PBS pH 2.0, RT, read-out: pH 2 Solubility (kinetic).

Where two headings read alike, the source gives them in different places.

With `CP(C)(=O)c1ccc(NC(=O)C2CC23CCN(C(=O)OC(C(F)(F)F)C(F)(F)F)CC3)cn1` (single isomer, unassigned) [Example 20, 1,1,1,3,3,3-hexafluoropropan-2-yl (R or S)-1-((6-(dimethylphosphoryl)pyridin-3-yl)carbamoyl)-6-azaspiro[2.5]octane-6-carboxylate], in data set [1], the intrinsic metabolic clearance (CLint scaled) at 1 μM is 0.85 mL/min/kg. The kinetic solubility at 2 h in data set [2] (setting [5]) came out at 310 µM. Besides, on MAGL [3], the inhibition at 5 mg/kg stood at 0%.
Regarding `O=C(Nc1ccncc1)C1CC12CCN(C(=O)OC(C(F)(F)F)C(F)(F)F)CC2` (single isomer, unassigned) [Example 24, 1,1,1,3,3,3-hexafluoropropan-2-yl (R or S)-1-(pyridin-4-ylcarbamoyl)-6-azaspiro[2.5]octane-6-carboxylate], the CLint scaled at 1 μM in data set [1] was 11.9 mL/min/kg. Also, the kinetic solubility at 2 h in data set [2] (setting [5]) came out at 197 µM. On MAGL [3], the inhibition at 5 mg/kg was 90%.
Turning to `O=C(Nc1cncc(F)c1)C1CC12CCN(C(=O)OC(C(F)(F)F)C(F)(F)F)CC2` (single isomer, unassigned) [Example 40, 1,1,1,3,3,3-hexafluoropropan-2-yl (R or S)-1-((5-fluoropyridin-3-yl)carbamoyl)-6-azaspiro[2.5]octane-6-carboxylate], the CLint scaled at 1 μM in data set [1] is 43.2 mL/min/kg. Also, the kinetic solubility at 2 h in data set [2] (setting [6]) amounted to 163 µM; in data set [2] (setting [5]) it was 100 µM. Moreover, the “MAGL % inh. 1 µM (human PC3)” value at MAGL [4] is given as 100%. Moreover, the inhibition at 5 mg/kg at MAGL [3] was determined as 100%.
For the molecule `O=C(Nc1cncnc1)C1CC12CCN(C(=O)OC(C(F)(F)F)C(F)(F)F)CC2` (single isomer, unassigned) [Example 96, 1,1,1,3,3,3-hexafluoropropan-2-yl (R or S)-1-(pyrimidin-5-ylcarbamoyl)-6-azaspiro[2.5]octane-6-carboxylate], the intrinsic clearance (CLint scaled) at 1 μM in data set [1] worked out at 17.1 mL/min/kg. Further, the kinetic solubility at 2 h in data set [2] (setting [5]) turned out to be 237 µM. Further, the inhibition at 5 mg/kg at MAGL [3] turned out to be 100%.
`Cc1cnc(NC(=O)C2CC23CCN(C(=O)OC(C(F)(F)F)C(F)(F)F)CC3)cn1` (single isomer, unassigned) [Example 112, 1,1,1,3,3,3-hexafluoropropan-2-yl (R or S)-1-((5-methylpyrazin-2-yl)carbamoyl)-6-azaspiro[2.5]octane-6-carboxylate]: the CLint scaled at 1 μM in data set [1] came to 9.59 mL/min/kg. The solubility (kinetic) at 2 h in data set [2] (setting [6]) amounted to 185 µM; in data set [2] (setting [5]), 109 µM. Also, the inhibition at 5 mg/kg at MAGL [3] turned out to be 75%.
In the case of `O=C(NCC1CCOCC1)[C@H]1CC12CCN(C(=O)OC(C(F)(F)F)C(F)(F)F)CC2` (single isomer, unassigned) [Example 117], in data set [1], the CLint scaled at 1 μM worked out at 20.6 mL/min/kg. Moreover, in data set [2] (setting [5]), the solubility (kinetic) at 2 h was found to be 251 µM. Moreover, the inhibition at 5 mg/kg on MAGL [3] came out at 100%.
With `Cn1ccc(NC(=O)C2CC23CCN(C(=O)OC(C(F)(F)F)C(F)(F)F)CC3)n1` (single isomer, unassigned) [Example 127, 1,1,1,3,3,3-hexafluoropropan-2-yl (R or S)-1-((1-methyl-1H-pyrazol-3-yl)carbamoyl)-6-azaspiro[2.5]octane-6-carboxylate], the intrinsic clearance (CLint scaled) at 1 μM in data set [1] turned out to be 9.51 mL/min/kg. Also, the solubility (kinetic) at 2 h in data set [2] (setting [6]) came out at 275 µM; in data set [2] (setting [5]) it was 292 µM. The inhibition at 5 mg/kg at MAGL [3] was 75%.
`CC1(NC(=O)C2CC23CCN(C(=O)OC(C(F)(F)F)C(F)(F)F)CC3)CCOCC1` (single isomer, unassigned) [Example 132, 1,1,1,3,3,3-hexafluoropropan-2-yl (R or S)-1-((4-methyltetrahydro-2H-pyran-4-yl)carbamoyl)-6-azaspiro[2.5]octane-6-carboxylate]: the intrinsic clearance (CLint scaled) at 1 μM in data set [1] was 44.2 mL/min/kg. For the same molecule, the inhibition at 5 mg/kg at MAGL [3] worked out at 100%.
The matching figures for `Cn1nccc1NC(=O)C1CC12CCN(C(=O)OC(C(F)(F)F)C(F)(F)F)CC2` (single isomer, unassigned) [Example 135, 1,1,1,3,3,3-hexafluoropropan-2-yl (R or S)-1-((1-methyl-1H-pyrazol-5-yl)carbamoyl)-6-azaspiro[2.5]octane-6-carboxylate]: 16.8 mL/min/kg and 100%.
Consider `O=C(Nc1nccs1)C1CC12CCN(C(=O)OC(C(F)(F)F)C(F)(F)F)CC2` (single isomer, unassigned) [Example 138, 1,1,1,3,3,3-hexafluoropropan-2-yl (R or S)-1-(thiazol-2-ylcarbamoyl)-6-azaspiro[2.5]octane-6-carboxylate], for which the CLint scaled at 1 μM in data set [1] turned out to be 40.5 mL/min/kg. Also, at MAGL [3], the inhibition at 5 mg/kg amounted to 75%.
